Consider 24 compounds from patent US7939657B2, “N-substituted benzene sulfonamides” (Elan Pharmaceuticals, Inc., priority 2003, dated 2011).

A value given as a limit tells only on which side of the number the result lay.

This assay has as its system gamma secretase cleavage of NotchΔE (constitutively active rat Notch1 construct ZEDN1). Briefly: Notch signaling assay for selective inhibitors of gamma secretase (4xwtCBF1 Luciferase reporter gene co-transfected with NotchΔE ZEDN1). The class given is cell-based. As to conditions: 'the above assay' (reporter gene based Notch signaling assay), ranges stated as 'from about'. The text has this: “A presenilin-1-dependent gamma-secretase-like protease mediates release of Notch intracellular domain.” Nature 398(6727): 518-22; Mumm, J. S., E. H. Schroeter, M. T. Saxena, A. Griesemer, X. Tian, D. J. Pan, W. J. Ray and R. Kopan (2000). “A ligand-induced extracellular cleavage regulates gamma-secretase-like proteolytic activation of Notch1.” Mol Cell 5(2): 197-206; Zhang, Z., P. Nadeau, W. Song, D. Donoviel, M. Yuan, A. Bernstein and B. A. Yankner (2000). “Presenilins are required for gamma-secretase cleavage of beta-APP and transmembrane cleavage of Notch-1.” Nat Cell Biol 2(7): 463-5). Cleavage of APP by gamma secretase leads to β-amyloid synthesis. Cleavage of Notch1 by gamma secretase results in release of the Notch intracellular domain (NICD), which translocates to the nucleus and activates gene expression (Jarriault, S., C. Brou, F. Logeat, E. H. Schroeter, R. Kopan and A. Israel (1995). “Signalling downstream of activated mammalian Notch.” Nature 377(6547): 355-8; Kopan, R., E. H. Schroeter, H. Weintraub and J. S. Nye (1996). “Signal transduction by activated Notch: importance of proteolytic processing and its regulation by the extracellular domain.” Proc Natl Acad Sci USA 93(4): 1683-8; Schroeter, E. H., J. A. Kisslinger and R. Kopan (1998). “Notch-1 signalling requires ligand-induced proteolytic release of intracellular domain.” Nature 393(6683): 382-6). In particular, Notch signaling activates transcription of the mammalian homolog of the Drosophila transcription factor hairy-enhancer of split (Hes). Transcriptional activation of Hes1 is mediated by de-repression of CBF1/RBPJk upon binding by NICD in the nucleus. These facts have been exploited to develop a reporter gene assay for Notch Signaling Hsieh, J. J., T. Henkel, P. Salmon, E. Robey, M. G. Peterson and S. D. Hayward (1996). “Truncated mammalian Notch1 activates CBF1/RBPJk-repressed genes by a mechanism resembling that of Epstein-Barr virus EBNA2.” Mol Cell Biol 16(3): 952-9; Lu, F. M. and S. E. Lux (1996). “Constitutively active human Notch1 binds to the transcription factor CBF1 and stimulates transcription through a promoter containing a CBF1-responsive element.” Proc Natl Acad Sci USA 93(11): 5663-7).
Due to the importance of Notch signaling in cell fate determination, and tissue differentiation during both development and in the adult, inhibition of Notch signaling by gamma secretase inhibitors is postulated to be a limiting factor in their therapeutic utility. […] “Notch signaling inhibits muscle cell differentiation through a CBF1-independent pathway.” Development 122(12): 3765-73 in combination with the CBF1 repressible Luciferase reporter gene 4xwtCBF1Luc (Hsieh, J. J., et al., (1996). Mol Cell Biol 16(3): 952-9).
When 4xwtCBF1 Luciferase is co-transfected with NotchΔE (ZEDN1), γ-secretase cleavage of NotchΔE releases the Notch intracellular domain (NICD), which translocates to the nucleus and de-represses CBF1mediated transcriptional repression, leading to transcription of the Luciferase reporter gene. Luciferase activity is easily assayed in cell extracts using commercially available kits. The activity of the reporter gene is directly correlated with gamma secretase cleavage of NotchΔE, and as such, a reduction in Luciferase activity provides a convenient measure of inhibition of gamma secretase cleavage of NotchΔE.
Background: A reporter such as luciferase makes a cellular process visible.
The IC50 is the concentration needed to halve the response being measured. As for `COc1ccc(CN(C2CCCCNC2=O)S(=O)(=O)c2ccc(C(C)(C)C)cc2)cc1OC` (stereo not drawn) [Compound 14, 4-tert-Butyl-N-(3,4-dimethoxy-benzyl)-N-(2-oxo-azepan-3-yl)-benzenesulfonamide], the IC50 was > 1000 nM.
In the case of `C=C(CC)CN(C1CCCCNC1=O)S(=O)(=O)c1ccc(Cl)cc1` (stereo not drawn) [Compound 66, 4-Chloro-N-(2-ethyl-allyl)-N-(2-oxo-azepan-3-yl)-benzenesulfonamide], the 50% inhibitory concentration (IC50) was 100 to 1000 nM.
As for `O=C1NCCCC[C@H]1N(Cc1ccc2c(c1)OCCO2)S(=O)(=O)c1ccc(Cl)cc1` [Compound 77, 4-chloro-N-(2,3-dihydro-1,4-benzodioxin-6-ylmethyl)-N-[(3R)-2-oxoazepan-3-yl]benzenesulfonamide], the figure is 0.1 to 25 nM; as for `O=C1NCCCC[C@H]1N(CCCOCc1ccccc1)S(=O)(=O)c1ccc(Cl)cc1` [Compound 89, N-[3-(benzyloxy)propyl]-4-chloro-N-[(3R)-2-oxoazepan-3-yl]benzenesulfonamide], > 1000 nM.
For `O=C1c2ccccc2C(=O)C1CCCCN([C@@H]1CCCCNC1=O)S(=O)(=O)c1ccc(Cl)cc1` [Compound 108, 4-chloro-N-[4-(1,3-dioxo-2,3-dihydro-1H-inden-2-yl)butyl]-N-[(3R)-2-oxoazepan-3-yl]benzenesulfonamide], the IC50 was in the range of 100 to 1000 nM.
In the case of `O=C1NCC[C@H]1N(Cc1ccc(F)cc1F)S(=O)(=O)c1ccc(Cl)cc1` [Compound 148, 4-chloro-N-(2,4-difluorobenzyl)-N-[(3R)-2-oxopyrrolidin-3-yl]benzenesulfonamide] it was > 1000 nM; in that of `O=C1NCCCCC1N(Cc1ccc(Br)s1)S(=O)(=O)c1ccc(Cl)cc1` (stereo not drawn) [Compound 160, N-(5-Bromo-thiophen-2-ylmethyl)-4-chloro-N-(2-oxo-azepan-3-yl)-benzenesulfonamide], 100 to 1000 nM.
As for `O=C1NCCCCC1N(Cc1cccn1S(=O)(=O)c1ccccc1)S(=O)(=O)c1ccc(Cl)cc1` (stereo not drawn) [Compound 206, N-(1-Benzenesulfonyl-1H-pyrrol-2-ylmethyl)-4-chloro-N-(2-oxo-azepan-3-yl)-benzenesulfonamide], the figure is > 1000 nM; as for `O=C1NCCCC[C@H]1N(Cc1ccc2ccccc2c1)S(=O)(=O)c1ccc(Cl)cc1` [Compound 227, 4-chloro-N-(2-naphthylmethyl)-N-[(3R)-2-oxoazepan-3-yl]benzenesulfonamide], 25 to 100 nM; as for `O=C1NCCCCC1N(Cc1ccc2c(c1)OCO2)S(=O)(=O)c1ccc(Cl)cc1` (stereo not drawn) [Compound 249, N-Benzo[1,3]dioxol-5-ylmethyl-4-chloro-N-(2-oxo-azepan-3-yl)-benzenesulfonamide], 0.1 to 25 nM.
In the case of `CSc1ccc(CN(C2CCCCNC2=O)S(=O)(=O)c2ccc(Cl)cc2)cc1` (stereo not drawn) [Compound 269, 4-Chloro-N-(4-methylsulfanyl-benzyl)-N-(2-oxo-azepan-3-yl)-benzenesulfonamide] it was 0.1 to 25 nM; in that of `COC(=O)c1ccc(CN([C@@H]2CCCCNC2=O)S(=O)(=O)c2ccc(Cl)cc2)cc1` [Compound 275, methyl 4-({[(4-chlorophenyl)sulfonyl][(3R)-2-oxoazepan-3-yl]amino}methyl)benzoate], 0.1 to 25 nM; in that of `NC(=O)CN(C1CCCCNC1=O)S(=O)(=O)c1ccc(Cl)cc1` (stereo not drawn) [Compound 338, 2-[(4-Chloro-benzenesulfonyl)-(2-oxo-azepan-3-yl)-amino]-acetamide], > 1000 nM.
In the case of `CC(C)CNC(=O)c1ccc(CN([C@@H]2CCCCNC2=O)S(=O)(=O)c2ccc(Cl)cc2)cc1` [Compound 486, 4-({[(4-chlorophenyl)sulfonyl][(3R)-2-oxoazepan-3-yl]amino}methyl)-N-isobutylbenzamide], the 50% inhibitory concentration (IC50) was in the range of 25 to 100 nM.
As for `O=C(CCCc1ccccc1)Nc1ccc(CN([C@@H]2CCCCNC2=O)S(=O)(=O)c2ccc(Cl)cc2)cc1F` [Compound 505, N-[4-({[(4-chlorophenyl)sulfonyl][(3R)-2-oxoazepan-3-yl]amino}methyl)-2-fluorophenyl]-4-phenylbutanamide], the figure is 100 to 1000 nM; as for `C[C@@H](NC(=O)c1ccc(CN([C@@H]2CCCCNC2=O)S(=O)(=O)c2ccc(Cl)cc2)cc1)c1ccccc1` [Compound 537, 4-({[(4-chlorophenyl)sulfonyl][(3R)-2-oxoazepan-3-yl]amino}methyl)-N-[(1R)-1-phenylethyl]benzamide], 0.1 to 25 nM.
As for `CC[C@@H](NC(=O)c1ccc(CN([C@@H]2CCCCNC2=O)S(=O)(=O)c2ccc(Cl)cc2)cc1)c1ccccc1` [Compound 553, 4-({[(4-chlorophenyl)sulfonyl][(3R)-2-oxoazepan-3-yl]amino}methyl)-N-[(1R)-1-phenylpropyl]benzamide], the figure is 25 to 100 nM.
As for `O=C(NCc1ccccc1OC(F)(F)F)c1ccc(CN([C@@H]2CCCCNC2=O)S(=O)(=O)c2ccc(Cl)cc2)cc1` [Compound 579, 4-({[(4-chlorophenyl)sulfonyl][(3R)-2-oxoazepan-3-yl]amino}methyl)-N-[2-(trifluoromethoxy)benzyl]benzamide], the figure is 100 to 1000 nM; as for `O=C(NCc1cccnc1)c1ccc(CN([C@@H]2CCCCNC2=O)S(=O)(=O)c2ccc(Cl)cc2)cc1` [Compound 593, 4-({[(4-chlorophenyl)sulfonyl][(3R)-2-oxoazepan-3-yl]amino}methyl)-N-(pyridin-3-ylmethyl)benzamide], 0.1 to 25 nM.
As to `CCN(C(=O)c1ccc(CN([C@@H]2CCCCNC2=O)S(=O)(=O)c2ccc(Cl)cc2)cc1)C1CCCCC1` [Compound 609, 4-({[(4-chlorophenyl)sulfonyl][(3R)-2-oxoazepan-3-yl]amino}methyl)-N-cyclohexyl-N-ethylbenzamide], the 50% inhibitory concentration (IC50) fell in the range of 100 to 1000 nM.
As for `O=C1NCCCC[C@H]1N(Cc1ccc(C(=O)N(Cc2cccnc2)Cc2cccnc2)cc1)S(=O)(=O)c1ccc(Cl)cc1` [Compound 613, 4-({[(4-chlorophenyl)sulfonyl][(3R)-2-oxoazepan-3-yl]amino}methyl)-N,N-bis(pyridin-3-ylmethyl)benzamide], the figure is > 1000 nM; as for `CC(NC(=O)c1ccc(CN([C@@H]2CCCCNC2=O)S(=O)(=O)c2ccc(Cl)cc2)cc1)c1cccnc1` (stereo partly drawn) [Compound 636, 4-({[(4-chlorophenyl)sulfonyl][(3R)-2-oxoazepan-3-yl]amino}methyl)-N-(1-pyridin-3-ylethyl)benzamide], 25 to 100 nM.
In the case of `O=C1NCCCC[C@H]1N(Cc1ccc(-c2nnn[nH]2)cc1)S(=O)(=O)c1ccc(Cl)cc1` [Compound 663] it was 25 to 100 nM; in that of `O=C1NCCCC[C@H]1N(Cc1ccc(-c2nnc(-c3ccccc3)o2)cc1)S(=O)(=O)c1ccc(Cl)cc1` [Compound 672], > 1000 nM.
